Experimental data reported in EP2803363A1, “The antigen CYBA-72Y/B15 and uses thereof” (Universitätsmedizin der Johannes Gutenberg-Universität Mainz, priority 2013, dated 2014).
Ends that are not written are not given here.

What was measured:
[1] = test system: miniMLLC 2E8; experiment: 20h-IFN-gamma ELISpot assay: recognition of synthetic CYBA peptides loaded on HLA-B*15:01-transfected 293T cells; type: cell-based; conditions: for peptide recognition by T lymphocytes against CYBA-72Y/B15: summary statement for all T lymphocytes (miniMLLCs), assay not given; for recognition by T cells using an IFN-gamma-ELISpot assay: 293T cells transfected with HLA-B*15:01, loaded with peptide at different concentrations, 2E8 effector cells, Figure 3A
Protocol: The present invention will now be further described in the following examples with reference to the accompanying figures and sequences, nevertheless, without being limited thereto. For the purposes of the present invention, all references as cited herein are incorporated by reference in their entireties. The Figures and Sequences show: • Figure 1: HLA restriction of miniMLLC 2E8. A) MZ529-EBV-B-cells (5x10^4 cells/well) were co-incubated in the presence of HLA-specific antibodies at concentrations mediating complete blocking of control-T lymphocytes with corresponding HLA restriction, with the miniMLLC 2E8 (1x10^4 cells/TU) in duplicate reactions in a 20h-IFN-gamma ELISpot assay. B) COS-7-cells (2x10^4 cells/well) were transfected with the HLA alleles of patient MZ529-AML and Buffy Coat donor 730 and tested in duplicate reactions for recognition by 2E8 (2x10^4 cells/well) in a 20h-IFN-gamma ELISpot assay. • Figure 2: Fragment analysis of the cDNA clone #428.67.4 for the identification of the peptide-coding region. 3'-fragments with a length difference of one codon (i.e. one amino acid) were generated from the cDNA clone #428.67.4 encoding the full-length CYBA-72Y, and were tested after co-transfection with HLA-B*15:01 into 293T cells (2x10^4 cells/well) in a 20h-IFN-gamma ELISpot assay for recognition by 2E8 (1.5x10^4 cells/well). MZ529-EBV-B cells (5x10^4 cells/well) served as positive control target. • Figure 3: Peptide recognition by the miniMLLC 2E8. (A) For a 20h-IFN-gamma ELISpot assay, 293T cells (2x10^4 cells/well) were transfected with HLA-B*15:01, were loaded with the indicated synthetic CYBA peptides at different concentrations, and were tested in duplicate reactions for recognition by 2E8 (2x10^4 cells/well). (B) For a […]-^51Cr-release assay, HLA-B*15:01-expressing L721.221-cells (2x10^4 cells/well) were loaded with the indicated synthetic CYBA peptides at different concentrations, and co-incubated in duplicate experiments with 2E8 (2x10^4 cells/well). • Figure 4: Recognition of non-malignant hematopoietic cells from HLA-B*15:01-positive BC donors by the CYBA-72Y/B15-specific miniMLLC 2E8. (A) From PBMCs of HLA-B*15:01-positive BC donors, who -with the exception of BC848 - carried at least one CYBA-242T allele (coding for CYBA-72Y), monocytes were purified using plastic adherence and differentiated to mature dendritic cells (mDCs) using cytokines. In duplicates 5x10^4 (BC087, BC848, BC967) or 3x10^4 (BC241, BC048) cells per well were tested for recognition by 2E8 (1.5x10^4 cells/well) in 20h-IFN-gamma ELISpot assays. […]

[2] = test system: miniMLLC 2E8; experiment: 48h-51Cr-release assay: synthetic CYBA peptides loaded on HLA-B*15:01-expressing L721.221-cells; type: cell-based; conditions: HLA-B*15:01-expressing L721.221-cells loaded with peptide at different concentrations; 2E8 effector cells; Figure 3B
Protocol: The present invention will now be further described in the following examples with reference to the accompanying figures and sequences, nevertheless, without being limited thereto. For the purposes of the present invention, all references as cited herein are incorporated by reference in their entireties. The Figures and Sequences show: • Figure 1: HLA restriction of miniMLLC 2E8. A) MZ529-EBV-B-cells (5x10^4 cells/well) were co-incubated in the presence of HLA-specific antibodies at concentrations mediating complete blocking of control-T lymphocytes with corresponding HLA restriction, with the miniMLLC 2E8 (1x10^4 cells/TU) in duplicate reactions in a 20h-IFN-gamma ELISpot assay. B) COS-7-cells (2x10^4 cells/well) were transfected with the HLA alleles of patient MZ529-AML and Buffy Coat donor 730 and tested in duplicate reactions for recognition by 2E8 (2x10^4 cells/well) in a 20h-IFN-gamma ELISpot assay. • Figure 2: Fragment analysis of the cDNA clone #428.67.4 for the identification of the peptide-coding region. 3'-fragments with a length difference of one codon (i.e. one amino acid) were generated from the cDNA clone #428.67.4 encoding the full-length CYBA-72Y, and were tested after co-transfection with HLA-B*15:01 into 293T cells (2x10^4 cells/well) in a 20h-IFN-gamma ELISpot assay for recognition by 2E8 (1.5x10^4 cells/well). […]

[3] = target: T1, CYBA-72Y (cytochrome b-245 alpha-polypeptide, p22phox; SNP rs4673, tyrosine at position 72) peptide on … (human); experiment: cytokine release
T1 peptide: GQKYMTAVV

[4] = target: T2, CYBA-72Y peptide on HLA-B*15:01 (human); experiment: cytokine release
T2 peptide: WGQKYMTAVV

**Q.** How did the “peptide recognition by T lymphocytes against CYBA-72Y/B15” value [1] turn out when “GQKHMTAVV [homologous peptide from CYBA-72H, reference compound]” was run?
**A.** Its value is “did not lead to any reactivity”.

**Q.** GQKYMTAVV [GQKYMTAVV] was tested. Which “recognition by T cells using an IFN-gamma-ELISpot assay” value [1] did it give?
**A.** The value was “recognized at lower concentrations”.

**Q.** What about the “peptide recognition by T lymphocytes against CYBA-72Y/B15” value [1] of the same molecule?
**A.** The value was “recognized by all T lymphocytes at the lowest concentration”.

**Q.** And the “recognition by T cells by means of a 51Cr-(chromium) release test” value [2]?
**A.** The value was “recognized at lower concentrations”.

**Q.** WGQKYMTAVV [WGQKYMTAVV] was tested. Which “recognition by T cells using an IFN-gamma-ELISpot assay” value [1] did it give?
**A.** The value was “recognized”.

**Q.** And the “recognition by T cells by means of a 51Cr-(chromium) release test” value [2]?
**A.** Its value is “recognized”.

B1: T-cell receptor cloned from miniMLLC 2D10 (TCR)
alpha TRAV10*01 TRAJ42*01 CDR3: CVVSRIYGGSQGNLIF
beta TRBV20-1*02 TRBJ2-3*01 CDR3: CSARGFSGVTDTQYF
**Q.** Which results are given for B1?
**A.** binding result [3]: recognises; binding result [4]: recognises
